Series [1] is described as follows: refractive index (Na D-line) (dimensionless). The note with it: 298.15 K; 101.33 kPa; Liquid; Standard Abbe refractometry.
The conditions of series [2]: 313.15 K, Liquid; for mass density: 101.33 kPa, Pycnometric method; for vapor or sublimation pressure: Closed cell (Static) method.

The structures appear in SMILES notation. ± gives the expanded uncertainty stated by the source.

On to `CC(=O)N(C)C` [N,N-dimethylethanamide], for which, in series [1], the refractive index was 1.43556 ± 0.00075. Also, in series [2], the mass density came to 922.4 ± 0.6 kg/m3 and the “vapor or sublimation pressure” value is on record as 0.658 ± 0.01 kPa.
As to `CCO` [ethanol], the refractive index in series [1] is 1.3592 ± 0.00075. In series [2], the mass density worked out at 772.2 ± 0.5 kg/m3 and the “vapor or sublimation pressure” value is on record as 17.89 ± 0.087 kPa.
Consider `O` [water], for which, in series [2], the “vapor or sublimation pressure” value was 7.375 ± 0.025 kPa.

Source of the values: the NIST ThermoML archive (doi:10.1016/j.jct.2005.08.001).
